# System: HEK293T cells expressing CD63-nanoLuc
# Assay: EV secretion level after GSK-A1 (nanoLuc luminescence assay / nanoparticle tracking analysis)
# Type: cell-based
# Settings: addition of GSK-A1; control without GSK-A1 set as 1; nluc activity in culture supernatant or NTA
# Method: A PI4KA inhibitor, GSK-A1, was administered to HEK293T cells expressing CD63-nanoLuc (pDB30), and the amount of secreted extracellular vesicles was measured by luminescence assay (Promega Corporation, Nanoglo luciferase assay system) that measures the nluc activity in a culture supernatant or by nanoparticle tracking analysis (NTA) using Nanosight (Malvern Panalytical Ltd.). As a control, the same experiment was performed without administering GSK-A1, and the EV secretion level at each GSK-A1 concentration was calculated by setting the EV secretion level of the control as 1.
smiles,measurement,value
"COc1ncc(-c2ccc3nc(N)n(-c4ccc(N5CCOCC5)cc4)c3c2)cc1S(=O)(=O)Nc1ccccc1F [GSK-A1, 5-(2-amino-1-(4-morpholinophenyl)-1H-benzo[d]imidazol-6-yl)-N-(2-fluorophenyl)-2-methoxypyridine-3-sulfonamide]",secretion level of a CD63 positive extracellular vesicle,increased

# — patent US20220411785A1, “LIBRARY OF BARCODED EXTRACELLULAR VESICLES” (The University of Tokyo, priority 2019, published 2022)
